Laboratory results as given in PubChem BioAssay AID248 (DTP/NCI, 2004).
Values joined by “and” are separate entries in the source; they are usually repeats but may differ in a detail not shown here. Equal entries are not always repeated. Inconclusive results and toxic doses are left out. Cut-off read from the data, not from the text of the source: active = T/C of 150% or more; inactive = T/C below 125%.

Test system: L1210 leukemia ip in BDF1 mice, survival T/C
Experiment: NCI In Vivo Anticancer Drug Screen. Data for tumor model L1210 Leukemia (intraperitoneal) in B6D2F1 (BDF1) mice
Settings: endpoint: mean survival time, higher = longer survival
Method in brief: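 Value reflects the ratio of survival in compound-treated mice to survival in vehicle-treated controls, with both groups carrying the same transplanted tumor.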

[1] = dose: 50.0 mg/kg/injection, schedule: Q01DX009 (ip), vehicle: saline
[2] = dose: 100.0 mg/kg/injection, schedule: Q01DX009 (ip), vehicle: saline
[3] = dose: 100.0 mg/kg/injection, schedule: Q04DX003 (ip), vehicle: saline
[4] = dose: 200.0 mg/kg/injection, schedule: Q01DX009 (ip), vehicle: saline
[5] = dose: 200.0 mg/kg/injection, schedule: Q04DX003 (ip), vehicle: saline
[6] = dose: 400.0 mg/kg/injection, schedule: Q04DX003 (ip), vehicle: saline
[7] = dose: 100.0 mg/kg/injection, schedule: Q01DX001 (ip), vehicle: Klucel (hydroxypropylcellulose) (HPC)
[8] = dose: 200.0 mg/kg/injection, schedule: Q01DX001 (ip), vehicle: Klucel (hydroxypropylcellulose) (HPC)
[9] = dose: 400.0 mg/kg/injection, schedule: Q01DX001 (ip), vehicle: Klucel (hydroxypropylcellulose) (HPC)
[10] = dose: 200.0 mg/kg/injection, schedule: Q04DX003 (ip), vehicle: saline with Tween-80
[11] = dose: 400.0 mg/kg/injection, schedule: Q04DX003 (ip), vehicle: saline with Tween-80
[12] = dose: 400.0 mg/kg/injection, schedule: Q01DX001 (ip), vehicle: saline

Measured: T/C

Nc1ccn(CC(=O)c2ccco2)c(=O)n1
inactive: [1] 111 % of control | [2] 111 % of control and 90 % of control | [3] 104 % of control | [4] 105 % of control | [5] 97 % of control

NC(=O)NCCNC(N)=O
inactive: [2] 108 % of control | [3] 97 % of control | [4] 110 % of control | [5] 105 % of control | dose: 400.0 mg/kg/injection, schedule: Q01DX009 (ip), vehicle: saline 108 % of control | [6] 103 % of control

O=c1[nH]nnc2nc[nH]c12
inactive: dose: 25.0 mg/kg/injection, schedule: Q01DX001 (ip), vehicle: steriod suspending solution 109 % of control | dose: 46.1 mg/kg/injection, schedule: Q01DX001 (ip), vehicle: steriod suspending solution 100 % of control | dose: 50.0 mg/kg/injection, schedule: Q01DX001 (ip), vehicle: steriod suspending solution 113 % of control | dose: 65.9 mg/kg/injection, schedule: Q01DX001 (ip), vehicle: steriod suspending solution 100 % of control | dose: 94.2 mg/kg/injection, schedule: Q01DX001 (ip), vehicle: steriod suspending solution 102 % of control | dose: 100.0 mg/kg/injection, schedule: Q01DX001 (ip), vehicle: steriod suspending solution 109 % of control | dose: 134.5 mg/kg/injection, schedule: Q01DX001 (ip), vehicle: steriod suspending solution 97 % of control | dose: 192.1 mg/kg/injection, schedule: Q01DX001 (ip), vehicle: steriod suspending solution 101 % of control | dose: 200.0 mg/kg/injection, schedule: Q01DX001 (ip), vehicle: steriod suspending solution 100 % of control | dose: 274.4 mg/kg/injection, schedule: Q01DX001 (ip), vehicle: steriod suspending solution 103 % of control | dose: 392.0 mg/kg/injection, schedule: Q01DX001 (ip), vehicle: steriod suspending solution 108 % of control | dose: 400.0 mg/kg/injection, schedule: Q01DX001 (ip), vehicle: steriod suspending solution 105 % of control | dose: 560.0 mg/kg/injection, schedule: Q01DX001 (ip), vehicle: steriod suspending solution 95 % of control | dose: 800.0 mg/kg/injection, schedule: Q01DX001 (ip), vehicle: steriod suspending solution 96 % of control

CSc1ncc(COC(C)=O)c(N)n1
inactive: [7] 97 % of control | dose: 100.0 mg/kg/injection, schedule: Q01DX009 (ip), vehicle: Klucel (hydroxypropylcellulose) (HPC) 102 % of control | [8] 99 % of control | dose: 200.0 mg/kg/injection, schedule: Q01DX009 (ip), vehicle: Klucel (hydroxypropylcellulose) (HPC) 96 % of control | [9] 92 % of control | dose: 400.0 mg/kg/injection, schedule: Q01DX009 (ip), vehicle: Klucel (hydroxypropylcellulose) (HPC) 104 % of control

Cc1c(CC(=O)O)c(=O)n(-c2ccccc2)n1C
inactive: dose: 75.0 mg/kg/injection, schedule: Q04DX003 (ip), vehicle: Klucel (hydroxypropylcellulose) (HPC) 105 % of control | dose: 150.0 mg/kg/injection, schedule: Q04DX003 (ip), vehicle: Klucel (hydroxypropylcellulose) (HPC) 101 % of control | dose: 300.0 mg/kg/injection, schedule: Q04DX003 (ip), vehicle: Klucel (hydroxypropylcellulose) (HPC) 104 % of control

CC(O)C(=O)OCCOc1ccc(Cl)cc1Cl (configuration not stated)
active: [1] 670 % of control
inactive: [2] 91 % of control | [3] 100 % of control | [4] 95 % of control | [5] 100 % of control | [6] 97 % of control

COc1cc(NC(=O)CC(C)=O)c(OC)cc1Cl
inactive: dose: 100.0 mg/kg/injection, schedule: Q04DX003 (ip), vehicle: saline with Tween-80 100 % of control | [10] 102 % of control | [11] 102 % of control

O=[N+]([O-])c1ccc(-c2ccccc2Cl)c([N+](=O)[O-])c1
inactive: dose: 100.0 mg/kg/injection, schedule: Q01DX001 (ip), vehicle: carboxymethylcellulose (CMC) 91 % of control | dose: 200.0 mg/kg/injection, schedule: Q01DX001 (ip), vehicle: carboxymethylcellulose (CMC) 91 % of control | dose: 400.0 mg/kg/injection, schedule: Q01DX001 (ip), vehicle: carboxymethylcellulose (CMC) 97 % of control

Nc1ncnc2c1c(S(=O)(=O)O)cn2C1OC(CO)C(O)C1O (configuration not stated)
inactive: [7] 90 % of control | [8] 93 % of control | [9] 100 % of control

O=C(O)c1cc([N+](=O)[O-])ccc1Nc1cccc2ccccc12
inactive: [3] 90 % of control | [5] 97 % of control

ClC12OOC(c3ccccc3)(O1)C(c1ccccc1)c1ccccc12 (configuration not stated)
inactive: dose: 100.0 mg/kg/injection, schedule: Q04DX003 (ip), vehicle: Klucel (hydroxypropylcellulose) (HPC) 93 % of control | dose: 200.0 mg/kg/injection, schedule: Q04DX003 (ip), vehicle: Klucel (hydroxypropylcellulose) (HPC) 98 % of control | dose: 400.0 mg/kg/injection, schedule: Q04DX003 (ip), vehicle: Klucel (hydroxypropylcellulose) (HPC) 98 % of control

COc1nc(N)c(C#N)c(C#N)c1C#N
inactive: dose: 15.0 mg/kg/injection, schedule: Q01DX001 (ip), vehicle: carboxymethylcellulose (CMC) 95 % of control | dose: 30.0 mg/kg/injection, schedule: Q01DX001 (ip), vehicle: carboxymethylcellulose (CMC) 95 % of control

CC(C)CN=C(N)N=C(N)N
inactive: dose: 50.0 mg/kg/injection, schedule: Q01DX009 (ip), vehicle: water 95 % of control | dose: 50.0 mg/kg/injection, schedule: Q04DX003 (ip), vehicle: water 102 % of control | dose: 100.0 mg/kg/injection, schedule: Q01DX001 (ip), vehicle: water 96 % of control | dose: 100.0 mg/kg/injection, schedule: Q01DX009 (ip), vehicle: water 97 % of control | dose: 100.0 mg/kg/injection, schedule: Q04DX003 (ip), vehicle: water 104 % of control | dose: 200.0 mg/kg/injection, schedule: Q01DX001 (ip), vehicle: water 103 % of control | dose: 200.0 mg/kg/injection, schedule: Q04DX003 (ip), vehicle: water 107 % of control

O=c1[nH]cncc1F
inactive: dose: 264.0 mg/kg/injection, schedule: Q01DX001 (ip), vehicle: saline 92 % of control | [12] 100 % of control and 112 % of control

Cc1cc([N+](=O)[O-])cc(Br)c1N
inactive: [10] 93 % of control | [11] 91 % of control

COC1C(OC(C)=O)CC(=O)OC(C)C/C=C/C=C\C(O)C(C)CC(CC=O)C1OC1OC(C)C(OC2CC(C)(O)C(OC(=O)CC(C)C)C(C)O2)C(N(C)C)C1O (configuration not stated)
inactive: dose: 100.0 mg/kg/injection, schedule: Q01DX001 (ip), vehicle: saline 96 % of control | [12] 90 % of control

COc1ccc(C(C)=O)cc1OC
inactive: dose: 100.0 mg/kg/injection, schedule: Q01DX009 (ip), vehicle: saline sonified 92 % of control | dose: 200.0 mg/kg/injection, schedule: Q01DX009 (ip), vehicle: saline sonified 88 % of control | dose: 400.0 mg/kg/injection, schedule: Q01DX009 (ip), vehicle: saline sonified 100 % of control
